Values quoted from earlier work in patent US9309575B2, “Mutant strains of Escherichia coli, a method of testing potential antibacterial agents using said strains as well as a testing kit” (Instytut Biologii Doswiadczalnej IM. M. Nenckiego Pan, priority 2010, dated 2016).

Tested on: gram-negative bacteria
Conditions: at concentrations of 1-10 μg/ml

Which biocidal properties does the source give for polymyxin B nonapeptide [PMBN] here?
Its biocidal properties is “does not exhibit biocidal properties”.
